The values that follow come from ChEMBL document CHEMBL3400031, “Histone H3 peptide based LSD1-selective inhibitors” (Bioorg Med Chem Lett, 2015).

The target in assay [1] is T1, Amine oxidase [flavin-containing] A (Homo sapiens, UniProt P21397).
T1 sequence (P21397 whole entry): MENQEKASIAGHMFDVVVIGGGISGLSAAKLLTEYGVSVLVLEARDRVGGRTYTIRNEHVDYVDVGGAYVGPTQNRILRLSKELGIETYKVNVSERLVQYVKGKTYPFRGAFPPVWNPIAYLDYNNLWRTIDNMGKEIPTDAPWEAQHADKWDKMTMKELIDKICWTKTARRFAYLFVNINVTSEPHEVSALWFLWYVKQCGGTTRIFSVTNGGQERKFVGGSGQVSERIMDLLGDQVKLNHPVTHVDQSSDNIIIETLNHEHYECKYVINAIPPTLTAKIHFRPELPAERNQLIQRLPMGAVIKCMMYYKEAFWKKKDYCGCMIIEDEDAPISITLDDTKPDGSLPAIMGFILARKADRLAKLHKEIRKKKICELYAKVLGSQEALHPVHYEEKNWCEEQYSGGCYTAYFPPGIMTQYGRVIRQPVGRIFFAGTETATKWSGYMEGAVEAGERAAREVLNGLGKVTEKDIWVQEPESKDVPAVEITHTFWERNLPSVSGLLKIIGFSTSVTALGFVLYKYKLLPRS
The assay is described as follows: Inhibition of human MAOA using (4S)-4,5-dihydro-2-(6-hydroxybenzothiazolyl)-4-thiazolecarboxylic acid substrate incubated for 60 mins by luciferin detection based chemiluminescence assay.

The target in assay [2] is T2, Amine oxidase [flavin-containing] B (Homo sapiens, UniProt P27338).
T2 sequence (P27338 whole entry): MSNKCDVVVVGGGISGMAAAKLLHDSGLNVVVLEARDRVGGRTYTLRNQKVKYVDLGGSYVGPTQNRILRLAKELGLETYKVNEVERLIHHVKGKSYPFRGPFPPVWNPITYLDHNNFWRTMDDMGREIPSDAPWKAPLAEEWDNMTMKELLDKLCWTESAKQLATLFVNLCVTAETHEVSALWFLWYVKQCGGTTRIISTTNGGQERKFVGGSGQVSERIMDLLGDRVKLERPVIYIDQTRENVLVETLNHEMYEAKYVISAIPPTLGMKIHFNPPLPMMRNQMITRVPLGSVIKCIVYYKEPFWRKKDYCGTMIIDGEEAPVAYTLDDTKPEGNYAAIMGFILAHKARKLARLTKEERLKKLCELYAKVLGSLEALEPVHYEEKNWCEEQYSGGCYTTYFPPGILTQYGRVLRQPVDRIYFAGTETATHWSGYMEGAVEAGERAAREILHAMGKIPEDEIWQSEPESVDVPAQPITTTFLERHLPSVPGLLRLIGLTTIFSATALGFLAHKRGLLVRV
The assay is described as follows: Inhibition of human MAOB using (4S)-4,5-dihydro-2-(6-hydroxybenzothiazolyl)-4-thiazolecarboxylic acid substrate incubated for 60 mins by luciferin detection based chemiluminescence assay.

Assay [3] addresses Lysine-specific histone demethylase 1A (Homo sapiens, UniProt O60341). The assay is described as follows: Inhibition of human recombinant LSD1 assessed as effect on H2O2 production incubated for 30 mins using methylated peptide substrate, Amplex red reagent and peroxidase by fluorimetry.

Numbered stars: 1 amine (or outer) side, 2 acyl side, 3 side chain; on linkers, the order of the positions; unused ones are H or OH. Square brackets hold non-standard residues; d marks the D form. Peptide text beside a SMILES is read from it. X1 = O=C([C@H](CCCCNC1CC1c1ccccc1)N[*:1])[*:2]

On to `C[C@H](N)C(=O)N[C@@H](CCCNC(=N)N)C(=O)N[C@H](C(=O)N[C@@H](CCCCNC1CC1c1ccccc1)C(=O)N[C@@H](CCC(N)=O)C(=O)O)[C@@H](C)O` (some centres undefined) (H-ART[X1]Q-OH), for which the IC50 was > 100 µM in assay [1], > 100 µM in assay [2] and > 10 µM in assay [3].

For the compound `C[C@H](N)C(=O)N[C@@H](CCCNC(=N)N)C(=O)N[C@H](C(=O)N[C@@H](CCCCNC1CC1c1ccccc1)C(=O)N[C@@H](CCC(N)=O)C(=O)N[C@H](C(=O)N[C@@H](C)C(=O)N[C@@H](CCCNC(=N)N)C(=O)N[C@@H](CCCCN)C(=O)O)[C@@H](C)O)[C@@H](C)O` (some centres undefined), the IC50 in assay [1] and in assay [2] was > 100 µM in each case.

On to `C[C@H](N)C(=O)N[C@@H](CCCNC(=N)N)C(=O)N[C@H](C(=O)N[C@@H](CCCCNC1CC1c1ccccc1)C(=O)N[C@@H](CCC(N)=O)C(=O)N[C@H](C(=O)N[C@@H](C)C(=O)N[C@@H](CCCNC(=N)N)C(=O)N[C@@H](CCCCN)C(=O)N[C@@H](CO)C(=O)N[C@H](C(=O)NCC(=O)NCC(=O)O)[C@@H](C)O)[C@@H](C)O)[C@@H](C)O` (some centres undefined), for which the half-inhibitory concentration (IC50) in assay [1] and in assay [2] was > 100 µM throughout.

In the case of `C[C@H](N)C(=O)N[C@@H](CCCNC(=N)N)C(=O)N[C@H](C(=O)N[C@@H](CCCCNC1CC1c1ccccc1)C(=O)N[C@@H](CCC(N)=O)C(=O)N[C@H](C(=O)N[C@@H](C)C(=O)N[C@@H](CCCNC(=N)N)C(=O)N[C@@H](CCCCN)C(=O)N[C@@H](CO)C(=O)N[C@H](C(=O)NCC(=O)NCC(=O)N[C@@H](CCCCN)C(=O)N[C@@H](C)C(=O)N1CCC[C@H]1C(=O)N[C@@H](CCCNC(=N)N)C(=O)O)[C@@H](C)O)[C@@H](C)O)[C@@H](C)O` (some centres undefined) (H-ART[X1]QTARKSTGGKAPR-OH), the concentration for half-maximal inhibition (IC50) in assay [1] and in assay [2] was > 100 µM each time.

For orientation: IC50 means the concentration that inhibits the measured activity by half.
